In US10407467B2, “Polymyxin derivatives and their use in combination therapy together with different antibiotics” (priority 2013, dated 2019):
Counter-ions that a name gives are not always drawn. Like-named read-outs stand apart in the source and are kept apart here. Numbered stars: 1 amine (or outer) side, 2 acyl side, 3 side chain; on linkers, the order of the positions; unused ones are H or OH. Bridge positions count the residues as written; N and C are the ends. Square brackets hold non-standard residues; d marks the D form. Peptide text beside a SMILES is read from it. * marks the point of attachment. ξ: configuration not given here. NHCH2(1,3-C6H4)CH2CO = O=C(Cc1cccc(CN[*:1])c1)[*:2]; ξβ3hGly(cHex) = NC(CC(=O)*)C1CCCCC1; X12 = CC(C)C[C@H](N)[C@H](O)C(=O)*; X22 = O=C(C[C@@H]1Cc2ccccc2CN1)*; Thr(3ξ) = CC(O)[C@H](N)C(=O)O; NH(2-ClPh) = Clc1ccccc1N*; Dab = NCC[C@H](N)C(=O)O; X3 = O=C([C@H]1CCCNC1)*; Dap = NC[C@H](N)C(=O)O; CO = O=C([*:1])[*:2]

Assays:
Acinetobacter baumannii [1] = assay: MIC, sole activity (no second agent); format: cell-based; details: in the absence of Rifampicin
Summary of the method: (§1)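 First, isolated colonies grown 18-24 hours on Mueller-Hinton agar were suspended to 0.5 McFarland; next, up to four strains per pathogen were tested in duplicate in cation-adjusted MHB; finally, the lower concordant value or modal repeat value was reported against Polymyxin B.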

Pseudomonas aeruginosa [2] = assay: MIC, sole activity (no second agent); format: cell-based; details: in the absence of Rifampicin
Summary of the method: as §1

Klebsiella pneumoniae [3] = assay: MIC, sole activity (no second agent); format: cell-based; details: in the absence of Rifampicin
Summary of the method: as §1

Escherichia coli [4] = assay: MIC, sole activity (no second agent); format: cell-based; details: in the absence of Rifampicin
Summary of the method: as §1

Acinetobacter baumannii [5] = assay: MIC, compound in combination with a second agent (broth microdilution); format: cell-based; details: 1:1 (wt:wt) combination with Rifampicin, MIC = total drug concentration; for MIC A. baumannii ATCC BAA-747: strain ATCC BAA-747; for MIC A. baumannii CCUG57249: strain CCUG57249; for MIC A. baumannii NCTC 13423: strain NCTC 13423
Summary of the method: (§2)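 MIC = combined concentration of test compound plus partner agent, mixed at equal mass (1:1 w/w, salt form as used). Up to four strains per species; colonies adjusted to 0.5 McFarland. Run in duplicate; >2-fold disagreement invalidates the run.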

Pseudomonas aeruginosa [6] = assay: as above; format: cell-based; details: 1:1 (wt:wt) combination with Rifampicin, MIC = total drug concentration; for MIC P. aeruginosa ATCC 27853: strain ATCC 27853; for MIC P. aeruginosa ATCC CRM-9027: strain ATCC CRM-9027; for MIC P. aeruginosa ATCC-47: strain ATCC-47; for MIC P. aeruginosa CCUG 59626: strain CCUG 59626
Summary of the method: as §2

Klebsiella pneumoniae [7] = assay: as above; format: cell-based; details: 1:1 (wt:wt) combination with Rifampicin, MIC = total drug concentration; for MIC K. pneumoniae ATCC 4352: strain ATCC 4352; for MIC K. pneumoniae ATCC-BAA-2146: strain ATCC-BAA-2146
Summary of the method: as §2

Escherichia coli [8] = assay: as above; format: cell-based; details: 1:1 (wt:wt) combination with Rifampicin, MIC = total drug concentration; for MIC E. coli ATCC25922: strain ATCC25922; for MIC E. coli NCTC9001: strain NCTC9001
Summary of the method: as §2

P. aeruginosa ATCC 27853 = details: for Log reduction from vehicle (CFU/g): ATCC 27853, in vivo, iv, 6 h
HK-2 cell line = assay: In vitro renal cell toxicity assay (resazurin reduction); format: cell-based, human

Molecule: CC(C)C[C@@H]1NC(=O)[C@@H](Cc2ccccc2)NC(=O)[C@H](CCN)NC(=O)[C@@H](NC(=O)[C@H](CN)NC(=O)[C@@H](NC(=O)CC(N)C2CCCCC2)C(C)O)CCNC(=O)[C@H](C(C)O)NC(=O)[C@H](CCN)NC(=O)[C@H](CCN)NC1=O (stereo partly drawn) [Example 47, [3-Amino-3-cyclohexyl-propionyl]-L-Thr-L-Dap-polymyxin B heptapeptide, TFA salt] ({ξβ3hGly(cHex)}-[Thr(3ξ)][Dap][Dab][Dab][dF]L[Dab][Dab][Thr(3ξ)]; lactam 3-C)
- MIC A. baumannii ATCC13424 (Acinetobacter baumannii [1]; strain ATCC13424): 1 micrograms/mL
- MIC A. baumannii ATCCBAA-747 (Acinetobacter baumannii [1]; strain ATCCBAA-747): 0.5 micrograms/mL
- MIC A. baumannii CCUG57249 (Acinetobacter baumannii [1]; strain CCUG 57249): 0.25 micrograms/mL
- MIC A. baumannii NCTC 13423 (Acinetobacter baumannii [1]; strain NCTC13423): 0.5 micrograms/mL
- MIC P. aeruginosa ATCC 27853 (Pseudomonas aeruginosa [2]; strain ATCC27853): ≤0.06 micrograms/mL
- MIC P. aeruginosa ATCC-47 (Pseudomonas aeruginosa [2]; strain ATCC-47): 0.25 micrograms/mL
- MIC P. aeruginosa ATCCCRM-9027 (Pseudomonas aeruginosa [2]; strain ATCCCRM-9027): ≤0.06 micrograms/mL
- MIC P. aeruginosa CCUG 59626 (Pseudomonas aeruginosa [2]; strain CCUG 59626): 0.125 micrograms/mL
- MIC K. pneumoniae ATCC 4352 (Klebsiella pneumoniae [3]; strain ATCC 4352): 0.5 micrograms/mL
- MIC K. pneumoniae ATCC-BAA2146 (Klebsiella pneumoniae [3]; strain ATCC-BAA2146): 0.5 micrograms/mL
- MIC K. pneumoniae CCUG-59348 (Klebsiella pneumoniae [3]; strain CCUG-59348): >32 micrograms/mL
- MIC E. coli ATCC25922 (Escherichia coli [4]; strain ATCC25922): 4 micrograms/mL
- MIC E. coli NCTC9001 (Escherichia coli [4]; strain NCTC9001): 4 micrograms/mL
- MIC A. baumannii ATCC BAA-747 (Acinetobacter baumannii [5]): ≤0.06 micrograms/mL
- MIC A. baumannii CCUG57249 (Acinetobacter baumannii [5]): ≤0.06 micrograms/mL
- MIC A. baumannii NCTC 13423 (Acinetobacter baumannii [5]): 0.125 micrograms/mL
- MIC A. baumannii NCTC 13424 (Acinetobacter baumannii [5]; strain NCTC 13424): 0.125 micrograms/mL
- MIC P. aeruginosa ATCC 27853 (Pseudomonas aeruginosa [6]): 0.125 micrograms/mL
- MIC P. aeruginosa ATCC CRM-9027 (Pseudomonas aeruginosa [6]): 0.125 micrograms/mL
- MIC P. aeruginosa ATCC-47 (Pseudomonas aeruginosa [6]): 0.125 micrograms/mL
- MIC P. aeruginosa CCUG 59626 (Pseudomonas aeruginosa [6]): 0.125 micrograms/mL
- MIC K. pneumoniae ATCC 4352 (Klebsiella pneumoniae [7]): 0.125 micrograms/mL
- MIC K. pneumoniae ATCC-BAA-2146 (Klebsiella pneumoniae [7]): 0.25 micrograms/mL
- MIC E. coli ATCC25922 (Escherichia coli [8]): ≤0.06 micrograms/mL
- MIC E. coli NCTC9001 (Escherichia coli [8]): 0.125 micrograms/mL
- effect on thigh burdens (P. aeruginosa ATCC 27853; 2 mg/kg IV three times at 1, 3.5 and 6 hours post infection): did not affect thigh burdens significantly
- reduction of thigh burdens (P. aeruginosa ATCC 27853; 4 mg/kg IV three times at 1, 3.5 and 6 hours post infection): 1.1 Log10 CFU/g
- Log reduction from vehicle (CFU/g) (P. aeruginosa ATCC 27853; 2 mg/kg): −0.09 log CFU/g
- Log reduction from vehicle (CFU/g) (P. aeruginosa ATCC 27853; 4 mg/kg): 1.07 log CFU/g

Molecule: CC(C)C[C@@H]1NC(=O)[C@@H](Cc2ccccc2)NC(=O)[C@H](CCN)NC(=O)[C@@H](NC(=O)[C@H](CCN)NC(=O)[C@@H](NC(=O)Cc2cccc(CN)c2)C(C)O)CCNC(=O)[C@H](C(C)O)NC(=O)[C@H](CCN)NC(=O)[C@H](CCN)NC1=O (some centres unmarked) [Example A1, 2-(3-(Aminomethyl)phenyl) ethanoyl polymyxin B nonapeptide] ({NHCH2(1,3-C6H4)CH2CO}-[Thr(3ξ)][Dab][Dab][Dab][dF]L[Dab][Dab][Thr(3ξ)]; lactam 3-C)
- HK-2 IC50 rel to PMB (HK-2 cell line): 8

Molecule: CC(C)C[C@@H]1NC(=O)[C@@H](Cc2ccccc2)NC(=O)[C@H](CCN)NC(=O)[C@@H](NC(=O)[C@H](CCN)NC(=O)[C@@H](NC(=O)[C@H](CN)NC(=O)CC(N)C2CCCCC2)C(C)O)CCNC(=O)[C@H](C(C)O)NC(=O)[C@H](CCN)NC(=O)[C@H](CCN)NC1=O (stereo partly drawn) [Example A6, [3(R,S)-3-Amino-3-cyclohexanepropanoyl]-L-Dap-polymyxin B nonapeptide] ({ξβ3hGly(cHex)}-[Dap][Thr(3ξ)][Dab][Dab][Dab][dF]L[Dab][Dab][Thr(3ξ)]; lactam 4-C)
- HK-2 IC50 rel to PMB (HK-2 cell line): 3

Molecule: CC(C)C[C@@H]1NC(=O)[C@@H](Cc2ccccc2)NC(=O)[C@H](CCN)NC(=O)[C@@H](NC(=O)[C@H](CN)NC(=O)[C@@H](NC(=O)[C@H](CCN)NC(=O)[C@H]2CCCNC2)C(C)O)CCNC(=O)[C@H](C(C)O)NC(=O)[C@H](CCN)NC(=O)[C@H](CCN)NC1=O (stereo partly drawn) [Example A13, [(3S)-piperidine-3-carbonyl]-L-Dab-L-Thr-L-Dap polymyxin B heptapeptide] (X3-[Dab][Thr(3ξ)][Dap][Dab][Dab][dF]L[Dab][Dab][Thr(3ξ)]; lactam 4-C)
- HK-2 IC50 rel to PMB (HK-2 cell line): 10

Molecule: CC(C)C[C@@H]1NC(=O)[C@@H](Cc2ccccc2)NC(=O)[C@H](CCN)NC(=O)[C@@H](NC(=O)[C@H](CCN)NC(=O)[C@@H](NC(=O)C[C@@H]2Cc3ccccc3CN2)C(C)O)CCNC(=O)[C@H](C(C)O)NC(=O)[C@H](CCN)NC(=O)[C@H](CCN)NC1=O (stereo partly drawn) [Example A14, (S)-2-((1,2,3,4)-tetrahydroisoquinolin-3-yl) ethanoyl polymyxin B nonapeptide] (X22-[Thr(3ξ)][Dab][Dab][Dab][dF]L[Dab][Dab][Thr(3ξ)]; lactam 3-C)
- HK-2 IC50 rel to PMB (HK-2 cell line): 5.3

Molecule: CC(C)C[C@@H]1NC(=O)[C@@H](Cc2ccccc2)NC(=O)[C@H](CCN)NC(=O)[C@@H](NC(=O)[C@H](CN)NC(=O)[C@@H](NC(=O)[C@H](CCN)NC(=O)[C@@H](O)[C@@H](N)CC(C)C)C(C)O)CCNC(=O)[C@H](C(C)O)NC(=O)[C@H](CCN)NC(=O)[C@H](CCN)NC1=O (stereo partly drawn) [Example A17, [(2S,3S)-3-Amino-2-hydroxy-5-methylhexanoyl]-L-Dab-L-Thr-L-Dap polymyxin B heptapeptide] (X12-[Dab][Thr(3ξ)][Dap][Dab][Dab][dF]L[Dab][Dab][Thr(3ξ)]; lactam 4-C)
- HK-2 IC50 rel to PMB (HK-2 cell line): 5.5

Molecule: CC(C)C[C@@H]1NC(=O)[C@@H](Cc2ccccc2)NC(=O)[C@H](CCN)NC(=O)[C@@H](NC(=O)[C@H](CCN)NC(=O)[C@@H](NC(=O)[C@H](CCN)NC(=O)[C@H]2CCCNC2)C(C)O)CCNC(=O)[C@H](C(C)O)NC(=O)[C@H](CCN)NC(=O)[C@H](CCN)NC1=O (stereo partly drawn) [Example A22, (S)-Piperidine-3-carbonyl polymyxin B decapeptide] (X3-[Dab][Thr(3ξ)][Dab][Dab][Dab][dF]L[Dab][Dab][Thr(3ξ)]; lactam 4-C)
- HK-2 IC50 rel to PMB (HK-2 cell line): 7.4

Molecule: CC(C)C[C@@H]1NC(=O)[C@@H](Cc2ccccc2)NC(=O)[C@H](CCN)NC(=O)[C@@H](NC(=O)[C@H](CCN)NC(=O)[C@@H](NC(=O)[C@H](CCN)NC(=O)Nc2ccccc2Cl)C(C)O)CCNC(=O)[C@H](C(C)O)NC(=O)[C@H](CCN)NC(=O)[C@H](CCN)NC1=O (some centres unmarked) [Example C2, CB-182, 804 sulphate salt, reference compound] ({NH(2-ClPh)-CO}-[Dab][Thr(3ξ)][Dab][Dab][Dab][dF]L[Dab][Dab][Thr(3ξ)]; lactam 4-C)
- IC50 HK-2 cells (HK-2 cell line; HK-2 cells, 24 h, resazurin reduction, mean values of up to 6 independent studies): 22 µg/mL
- MIC A. baumannii ATCC BAA-747 (Acinetobacter baumannii [5]): 0.25 micrograms/mL
- MIC A. baumannii CCUG57249 (Acinetobacter baumannii [5]): 0.5 micrograms/mL
- MIC A. baumannii NCTC 13423 (Acinetobacter baumannii [5]): 0.25 micrograms/mL
- MIC P. aeruginosa ATCC 27853 (Pseudomonas aeruginosa [6]): 0.5 micrograms/mL
- MIC P. aeruginosa ATCC CRM-9027 (Pseudomonas aeruginosa [6]): 0.5 micrograms/mL
- MIC P. aeruginosa ATCC-47 (Pseudomonas aeruginosa [6]): 0.25 micrograms/mL
- MIC P. aeruginosa CCUG 59626 (Pseudomonas aeruginosa [6]): 0.125 micrograms/mL
- MIC K. pneumoniae ATCC 4352 (Klebsiella pneumoniae [7]): 0.25 micrograms/mL
- MIC K. pneumoniae ATCC-BAA-2146 (Klebsiella pneumoniae [7]): 0.5 micrograms/mL
- MIC K. pneumoniae CCUG-59348 (Klebsiella pneumoniae [7]; strain CCUG-59348): 2 micrograms/mL
- MIC E. coli ATCC25922 (Escherichia coli [8]): 0.125 micrograms/mL
- MIC E. coli NCTC9001 (Escherichia coli [8]): 0.25 micrograms/mL

Molecule: Octanoyl polymyxin B nonapeptide, sulfate salt [Example C6, reference compound]
- HK-2 relative to PMB (HK-2 cell line): 3.3
- HK-2 toxicity (IC50) compared with PMB (HK-2 cell line): reduced toxicity against HK-2 compared with PMB
